Tests used:
[1] = tested on: Staphylococcus epidermidis; assay: (§1) Permeability of Bodipy-tagged compound across Staphylococcus epidermidis RP62A biofilms with 223 micrometer radial dimensions and 153 micrometer orthogonal dimensions assessed as time required for fluorescence intensity in centre of biofilm cluster to reach 50% of steady state maximum bulk fluid fluorescence intensity; assay type: ADME, organism-based; settings: in vivo
[2] = tested on: Staphylococcus epidermidis; assay: Permeability of unlabeled compound across Staphylococcus epidermidis RP62A biofilms assessed as diffusion coefficient at 23 degC by time lapse confocal scanning microscop; assay type: ADME, organism-based; settings: in vivo
[3] = tested on: Staphylococcus epidermidis; assay: as §1, with “278” for “223”, “168” for “153”; assay type: ADME, organism-based; settings: in vivo
[4] = tested on: Staphylococcus epidermidis; assay: as §1, with “rhodamine-tagged” for “Bodipy-tagged”, “94” for “223”, “63” for “153”; assay type: ADME, organism-based; settings: in vivo
[5] = Aqueous diffusion coefficient of rhodamine-tagged compound at 23 degC by time lapse confocal scanning microscopy; assay type: physicochemical; settings: buffer
[6] = tested on: Staphylococcus epidermidis; assay: as §1, with “rhodamine-tagged” for “Bodipy-tagged”, “207” for “223”, “97” for “153”; assay type: ADME, organism-based; settings: in vivo
[7] = tested on: Staphylococcus epidermidis; assay: Permeability of rhodamine-tagged compound across Staphylococcus epidermidis RP62A biofilms assessed as diffusion coefficient at 23 degC by time lapse confocal scanning microscopy; assay type: ADME, organism-based; settings: in vivo
[8] = tested on: Staphylococcus epidermidis; assay: as §1, with “181” for “223”, “103” for “153”; assay type: ADME, organism-based; settings: in vivo
[9] = Aqueous diffusion coefficient of Bodipy-tagged compound at 23 degC by time lapse confocal scanning microscopy; assay type: physicochemical; settings: buffer
[10] = tested on: Staphylococcus epidermidis; assay: Permeability of Bodipy-tagged compound across Staphylococcus epidermidis RP62A biofilms assessed as diffusion coefficient at 23 degC by time lapse confocal scanning microscopy; assay type: ADME, organism-based; settings: in vivo
[11] = tested on: Staphylococcus epidermidis; assay: as §1, with “rhodamine-tagged” for “Bodipy-tagged”, “217” for “223”, “115” for “153”; assay type: ADME, organism-based; settings: in vivo

CCCCCCCCCC(=O)N[C@@H](Cc1c[nH]c2ccccc12)C(=O)N[C@H](CC(N)=O)C(=O)N[C@@H](CC(=O)O)C(=O)N[C@@H]1C(=O)NCC(=O)N[C@@H](CCCN)C(=O)N[C@@H](CC(=O)O)C(=O)N[C@H](C)C(=O)N[C@@H](CC(=O)O)C(=O)NCC(=O)N[C@H](CO)C(=O)N[C@@H]([C@H](C)CC(=O)O)C(=O)N[C@@H](CC(=O)c2ccccc2N)C(=O)O[C@@H]1C
Time [1]: 60 s
D [2]: 0.78 ×10⁻⁶ cm2/s
Time [3]: 210 s
Time [4]: 26 s
D [5]: 1.78 ×10⁻⁶ cm2/s
Time [6]: 40 s
D [7]: 4.7 ×10⁻⁷ cm2/sec
Time [8]: 67 s
D [9]: 1.73 ×10⁻⁶ cm2/s
D [10]: 5.2 ×10⁻⁷ cm2/sec
Time [11]: 140 s
